“Also recorded” adds a separate entry of the source.
Legend:
[1] = tested on: intracellular levels of PRPP; settings: reversible upon treatment with hypoxanthine; cited from earlier work
[2] = biological target: T1, muscle glycogen phosphorylase b (Homo sapiens, UniProt P11217); settings: cited from earlier work
T1 sequence (P11217 1-842): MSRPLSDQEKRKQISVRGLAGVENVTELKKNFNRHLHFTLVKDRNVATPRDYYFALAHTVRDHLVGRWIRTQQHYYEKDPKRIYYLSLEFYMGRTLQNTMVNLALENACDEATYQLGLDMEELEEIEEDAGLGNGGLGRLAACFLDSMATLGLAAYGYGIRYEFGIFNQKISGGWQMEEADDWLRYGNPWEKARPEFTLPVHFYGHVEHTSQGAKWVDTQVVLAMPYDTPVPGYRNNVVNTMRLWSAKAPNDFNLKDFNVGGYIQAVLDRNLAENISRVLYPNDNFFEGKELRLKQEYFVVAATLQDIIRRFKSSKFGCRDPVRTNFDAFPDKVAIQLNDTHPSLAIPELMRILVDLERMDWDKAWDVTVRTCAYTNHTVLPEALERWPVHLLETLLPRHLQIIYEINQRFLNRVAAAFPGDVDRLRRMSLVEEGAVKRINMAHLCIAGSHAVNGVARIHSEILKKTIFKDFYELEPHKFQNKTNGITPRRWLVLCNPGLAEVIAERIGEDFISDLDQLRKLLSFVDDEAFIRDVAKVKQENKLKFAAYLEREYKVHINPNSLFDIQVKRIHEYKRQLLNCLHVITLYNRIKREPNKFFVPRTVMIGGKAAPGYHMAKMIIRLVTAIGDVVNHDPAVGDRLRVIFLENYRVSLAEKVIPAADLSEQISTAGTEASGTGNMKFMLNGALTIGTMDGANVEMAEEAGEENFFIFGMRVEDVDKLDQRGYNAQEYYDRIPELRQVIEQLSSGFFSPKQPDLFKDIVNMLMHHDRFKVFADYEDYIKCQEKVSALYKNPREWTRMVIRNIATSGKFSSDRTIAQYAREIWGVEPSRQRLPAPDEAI

Deoxycytidine Kinase = biological target: T2, Deoxycytidine Kinase (Homo sapiens, UniProt P27707); experiment: MTX-agarose affinity chromatography of cell lysate, MS identification; format: binding; settings: HEK 293 lysate
T2 construct: endogenous in cells; host or cells: HEK 293
T2 sequence (P27707 whole entry): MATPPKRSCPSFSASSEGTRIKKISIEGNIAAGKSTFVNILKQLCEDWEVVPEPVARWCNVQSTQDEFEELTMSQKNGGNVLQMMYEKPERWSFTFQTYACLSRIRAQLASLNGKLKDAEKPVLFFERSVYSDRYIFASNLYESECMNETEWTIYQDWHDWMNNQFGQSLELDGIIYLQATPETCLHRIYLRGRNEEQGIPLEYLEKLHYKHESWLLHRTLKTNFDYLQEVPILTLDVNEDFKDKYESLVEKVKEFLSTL
Description: (§1) After incubation for 30 minutes at 4° C. with shaking, the lysates were clarified by centrifugation (27,000×g). In some experiments, cells were lysed using 20 strokes of a Dounce® homogenizer in the absence of detergents. […] While optimizing the protocol, however, several experimental variations were tested on cell lysates including concentration by ammonium sulfate precipitation, or removal of nucleic acid with Streptomycin sulfate. In such cases, the protein sample was desalted using a PD 10 protein-desalting column (Pharmacia), which had been pre-equilibrated in the same buffer (10 mM potassium phosphate pH 7.5)
(§2) Affinity Chromatography: The desalted lysate was loaded onto a column of pre-equilibrated MTX-agarose (Sigma, 50 μL bed volume) or sepharose 4B agarose as a negative control. The lysates were allowed to slowly flow through the matrix under gravity flow. […] Retentates from the microcons were then loaded onto SDS-PAGE 4%-15% gradient mini gels (Bio-Rad). […]
(§3) The peptides were then separated by reverse phase chromatography on C18 resin and directly injected into a mass spectrometer using an automated sample-loading device from 96 well plates. […] The spectra generated were analyzed on a custom-built multi-node server platform (RADARS, ProteoMetrics), which uses two database searching programs, Sonar (ProteoMetrics) and Mascot (Matrix Sciences). […]

Glutathione synthase = biological target: T3, Glutathione synthase (Homo sapiens, UniProt P48637); experiment: as above; format: binding; settings: HEK 293 lysate
T3 construct: endogenous in cells; host or cells: HEK 293
T3 sequence (P48637 1-474): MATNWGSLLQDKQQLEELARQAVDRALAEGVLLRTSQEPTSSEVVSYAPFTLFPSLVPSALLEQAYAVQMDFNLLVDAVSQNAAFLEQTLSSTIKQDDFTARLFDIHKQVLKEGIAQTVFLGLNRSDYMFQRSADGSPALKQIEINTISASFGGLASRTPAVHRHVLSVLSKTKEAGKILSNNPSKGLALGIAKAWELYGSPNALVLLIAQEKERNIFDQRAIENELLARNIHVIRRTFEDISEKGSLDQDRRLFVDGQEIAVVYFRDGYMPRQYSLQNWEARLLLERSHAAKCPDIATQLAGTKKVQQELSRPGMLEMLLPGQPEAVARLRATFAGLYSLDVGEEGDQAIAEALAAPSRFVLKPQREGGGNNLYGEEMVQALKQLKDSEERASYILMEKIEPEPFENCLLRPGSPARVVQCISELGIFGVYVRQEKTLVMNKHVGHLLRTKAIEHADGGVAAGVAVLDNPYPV
Description: as §1, §2, §3

SAICAR synthetase = biological target: T4, SAICAR synthetase (Homo sapiens, UniProt P22234); experiment: as above; format: binding; settings: HEK 293 lysate; bifunctional enzyme with AIR carboxylase
T4 construct: endogenous in cells; host or cells: HEK 293
T4 sequence (P22234 1-425): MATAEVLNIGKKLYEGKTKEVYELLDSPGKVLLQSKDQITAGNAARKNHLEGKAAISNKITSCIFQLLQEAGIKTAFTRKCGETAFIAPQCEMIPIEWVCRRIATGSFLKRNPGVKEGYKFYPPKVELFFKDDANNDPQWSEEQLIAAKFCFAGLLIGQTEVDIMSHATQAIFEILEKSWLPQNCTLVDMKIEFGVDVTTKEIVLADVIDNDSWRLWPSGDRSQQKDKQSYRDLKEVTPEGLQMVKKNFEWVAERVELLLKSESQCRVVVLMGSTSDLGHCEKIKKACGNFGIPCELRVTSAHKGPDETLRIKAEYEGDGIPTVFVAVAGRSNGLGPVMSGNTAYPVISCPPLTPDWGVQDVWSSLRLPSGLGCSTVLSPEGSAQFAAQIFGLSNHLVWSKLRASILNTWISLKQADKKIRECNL
Description: as §1, §2, §3

[3] = tested on: purine de novo synthesis in leukemia cells; settings: on treatment with Methotrexate; cited from earlier work
Pyridoxal Kinase = biological target: T5, Pyridoxal Kinase (Homo sapiens, UniProt O00764); experiment: MTX-agarose affinity chromatography of cell lysate, MS identification; format: binding; settings: HEK 293 lysate
T5 construct: endogenous in cells; host or cells: HEK 293
T5 sequence (O00764 1-312): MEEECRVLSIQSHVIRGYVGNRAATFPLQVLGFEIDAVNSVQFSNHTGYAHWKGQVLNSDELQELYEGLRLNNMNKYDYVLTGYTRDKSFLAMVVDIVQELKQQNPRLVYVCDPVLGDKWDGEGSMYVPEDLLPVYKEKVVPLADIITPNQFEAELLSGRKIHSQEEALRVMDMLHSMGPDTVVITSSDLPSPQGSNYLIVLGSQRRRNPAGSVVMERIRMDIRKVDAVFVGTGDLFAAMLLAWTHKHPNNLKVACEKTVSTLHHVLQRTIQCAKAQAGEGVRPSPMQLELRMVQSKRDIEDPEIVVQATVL
Description: as §1, §2, §3

[4] = biological target: T6, Pterin-4-alpha-carbinolamine dehydrogenase (PCD) (Homo sapiens, UniProt P61457); experiment: as above; format: binding; settings: HEK 293 lysate
T6 construct: endogenous in cells; host or cells: HEK 293
T6 sequence (P61457 1-104): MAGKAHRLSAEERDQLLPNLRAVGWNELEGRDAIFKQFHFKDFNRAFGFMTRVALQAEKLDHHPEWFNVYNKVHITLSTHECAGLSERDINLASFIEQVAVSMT
Description: as §1, §2, §3

Deoxyguanosine kinase = biological target: T7, Deoxyguanosine kinase (Homo sapiens, UniProt Q16854); experiment: as above; format: binding; settings: HEK 293 lysate
T7 construct: endogenous in cells; host or cells: HEK 293
T7 sequence (Q16854 40-277): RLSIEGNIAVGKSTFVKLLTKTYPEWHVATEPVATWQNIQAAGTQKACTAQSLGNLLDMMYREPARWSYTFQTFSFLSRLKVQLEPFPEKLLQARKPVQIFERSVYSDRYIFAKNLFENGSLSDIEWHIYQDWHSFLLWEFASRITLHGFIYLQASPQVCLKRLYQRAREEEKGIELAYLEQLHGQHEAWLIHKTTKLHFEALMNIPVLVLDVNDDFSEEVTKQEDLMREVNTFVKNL
Description: as §1, §2, §3

For `CN(Cc1cnc2nc(N)nc(N)c2n1)c1ccc(C(=O)N[C@@H](CCC(=O)O)C(=O)O)cc1` [Methotrexate], the “effect on levels of PRPP” value [1] is given as “raising the intracellular levels of PRPP; also recorded: increase on levels of PRPP”, the “inhibition of muscle glycogen phosphorylase b” value [2] is given as “reversible inhibitors” and the “Association with the Methotrexate matrix” value (Deoxycytidine Kinase) is given as “indirect interaction with Methotrexate”. For the same compound, the “Association with the Methotrexate matrix” value (Glutathione synthase) was “consistently found”, the “Association with the Methotrexate matrix” value (SAICAR synthetase) was “a single band contained peptides from both domains” and the “accumulation of 5-phosphoribosyl-1-pyrophosphate” value [3] was 3-4 fold. For the same compound, the “de novo purine pathway” value [3] was “completely blocked”, the “Protein identified by Mass Spec.; New MTX interactor” value (from here on “Protein identified”) (Pyridoxal Kinase) was “direct binder of Methotrexate” and the “Protein identified” value (Pyridoxal Kinase; listed as MTX) was “✓”. For the same compound, the “Protein identified” value [4] was “binds directly to Methotrexate”, the “Protein identified” value ([4]; listed as MTX) was “✓” and the “Protein identified” value (Deoxyguanosine kinase) was “binds to Methotrexate through a direct interaction”. For the same compound, the “Protein identified” value (Deoxyguanosine kinase; listed as MTX) was “✓”.

From US20030166007A1, “Chemical proteomics” (MDS Proteomics Inc., priority 2002, published 2003)
